Measured values reported in ChEMBL document CHEMBL1127938, “The first synthesis of a C-9 carbonyl modified baccatin III derivative and its conversion to novel taxol and taxotere analogues” (1994).

Experiments:
[1] = In vitro concentration in […] which reduces the protein concentration by 50% in a microtubule assembly assay, relative to taxol (1) and expressed as ED50/ED50 taxol; assay type: functional
B16 [2] = test: Compound was tested in vitro inhibition of proliferation against B16 melanoma after a 40h incubation relative to that of taxol (Taxol=1); assay type: functional, Mus musculus
B16 [3] = test: Compound was tested in vitro inhibition of proliferation against B16 melanoma after a 40h incubation; assay type: functional, Mus musculus
[4] = In vitro concentration in […] which reduces the protein concentration by 50% in a microtubule assembly assay expressed as ED50/ED50 taxol; assay type: functional

**Q.** For `CC(=O)O[C@@]12CO[C@@H]1C[C@H](O)[C@@]1(C)c3oc(=O)oc3C3=C(C)[C@@H](OC(=O)[C@H](O)[C@@H](NC(=O)c4ccccc4)c4ccccc4)C[C@@](O)([C@@H](OC(=O)c4ccccc4)C12)C3(C)C` (stereo partly specified), which ED50 ratio [1] is on record?
**A.** The ED50 ratio was 2.4.

**Q.** What about the ED50 ratio (B16 [2]) of the same molecule?
**A.** Its ED50 ratio is 34.5.

**Q.** For `CC(=O)O[C@@]12CO[C@@H]1C[C@H](O)[C@@]1(C)c3oc(=O)oc3C3=C(C)[C@@H](OC(=O)[C@H](O)[C@@H](NC(=O)OC(C)(C)C)c4ccccc4)C[C@@](O)([C@@H](OC(=O)c4ccccc4)C12)C3(C)C` (stereo partly specified), which ED50 ratio [1] is on record?
**A.** The ED50 ratio was 0.5.

**Q.** What about the ED50 ratio (B16 [2]) of the same molecule?
**A.** The ED50 ratio was 16.4.

**Q.** For `CC(=O)O[C@H]1C(=O)[C@@]2(C)[C@H]([C@H](OC(=O)c3ccccc3)[C@]3(O)C[C@H](OC(=O)[C@H](O)[C@@H](NC(=O)c4ccccc4)c4ccccc4)C(C)=C1C3(C)C)[C@]1(OC(C)=O)CO[C@@H]1C[C@@H]2O` [PACLITAXEL], which ED50 ratio (B16 [3]) is on record?
**A.** Its ED50 ratio is 1.

**Q.** And the ED50 ratio [4]?
**A.** Its ED50 ratio is 1.
